Measurements reported in patent US20200157092A1, “[1,2,4]-TRIAZOLO [1,5-A]-PYRIMIDINYL DERIVATIVES SUBSTITUTED WITH PIPERIDINE, […] […] OGA INHIBITORS” (priority 2017, published 2020).
Where two headings read alike, the source gives them in different places.

Columns and labels:
[1] = molecular target: T1, recombinant human Meningioma Expressed Antigen 5 (MGEA5), also referred to as O-GlcNAcase (OGA) (Homo sapiens, UniProt O60502); assay: OGA biochemical assay: inhibition of FM-GlcNAc hydrolysis, fluorescence; protocol A (10 nM OGA, 1 h) or protocol B (2 nM OGA, 6 h); conditions: for IC50: read-out: Enzymatic hOGA, pIC50 (converted)
T1 construct: Full length OGA enzyme was purchased at OriGene (cat # TP322411); purchased OriGene TP322411
T1 sequence (O60502 1-916): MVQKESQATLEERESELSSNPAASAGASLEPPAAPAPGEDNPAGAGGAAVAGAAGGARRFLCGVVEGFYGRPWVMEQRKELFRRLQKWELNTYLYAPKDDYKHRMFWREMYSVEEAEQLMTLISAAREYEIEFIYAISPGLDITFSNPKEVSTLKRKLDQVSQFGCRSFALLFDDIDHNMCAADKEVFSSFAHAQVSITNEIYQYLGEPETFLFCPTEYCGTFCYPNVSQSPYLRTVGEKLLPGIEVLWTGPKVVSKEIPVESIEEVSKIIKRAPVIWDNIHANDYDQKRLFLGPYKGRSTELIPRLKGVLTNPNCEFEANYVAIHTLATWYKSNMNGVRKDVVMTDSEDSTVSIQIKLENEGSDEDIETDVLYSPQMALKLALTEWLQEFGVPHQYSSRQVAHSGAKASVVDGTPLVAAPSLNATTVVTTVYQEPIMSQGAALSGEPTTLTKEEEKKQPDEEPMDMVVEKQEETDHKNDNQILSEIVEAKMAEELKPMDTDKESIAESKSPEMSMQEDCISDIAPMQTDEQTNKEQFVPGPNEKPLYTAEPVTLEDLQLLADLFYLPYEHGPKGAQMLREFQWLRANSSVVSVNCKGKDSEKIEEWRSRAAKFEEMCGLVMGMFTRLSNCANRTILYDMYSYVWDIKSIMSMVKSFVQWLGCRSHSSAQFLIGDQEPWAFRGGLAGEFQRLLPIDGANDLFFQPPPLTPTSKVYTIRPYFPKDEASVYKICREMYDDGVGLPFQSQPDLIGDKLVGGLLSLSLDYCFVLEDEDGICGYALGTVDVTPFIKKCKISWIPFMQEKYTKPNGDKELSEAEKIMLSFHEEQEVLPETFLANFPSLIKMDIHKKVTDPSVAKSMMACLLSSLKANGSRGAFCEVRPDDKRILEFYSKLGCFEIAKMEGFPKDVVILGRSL
Procedure: The hydrolysis FM-GlcNAc (Marker Gene technologies, cat # M1485) results in the formation of ß-D-N-glucosamineacetate and fluorescein. The fluorescence of the latter can be measured at excitation wavelength 485 nm and emission wavelength 538 nm. An increase in enzyme activity results in an increase in fluorescence signal. Full length OGA enzyme was purchased at OriGene (cat # TP322411). The enzyme was stored in 25 mM Tris.HCl, pH 7.3, 100 mM glycine, 10% glycerol at −20° C. […] The assay was performed in 200 mM Citrate/phosphate buffer supplemented with 0.005% Tween-20. 35.6 g Na2HPO4 2 H2O (Sigma, # C0759) were dissolved in 1 L water to obtain a 200 mM solution. […] The buffer to stop the reaction consists of a 500 mM Carbonate buffer, pH 11.0. […] OGA was used at a 10 nM (protocol A) or 2 nM (protocol B) concentration and FM-GlcNAc at a 100 uM final concentration. Dilutions were prepared in assay buffer.
Plates were pre-incubated for 60 min at room temperature and then 2 μl FM-GlcNAc substrate mix added. […] Plates were briefly centrifuged for 1 min at 1000 rpm and incubate at room temperature for 1 h (10 nM OGA, protocol A) or 6 h (2 nM OGA, protocol B). To stop the reaction 5 μl STOP buffer were added and plates centrifuge again 1 min at 1000 rpm. Fluorescence was quantified in the Thermo Scientific Fluoroskan Ascent or the PerkinElmer EnVision with excitation wavelength 485 nm and emission wavelength 538 nm.
For analysis a best-fit curve is fitted by a minimum sum of squares method. From this an IC50 value and Hill coefficient was obtained. High control (no inhibitor) and low control (saturating concentrations of standard inhibitor) were used to define the minimum and maximum values.

OGA = molecular target: T2, OGA (Homo sapiens, UniProt O60502); assay: OGA cellular assay: immunocytochemical detection of O-GlcNAcylated proteins in HEK293 cells inducible for P301L mutant human Tau; format: cell-based; conditions: for Cellular hOGA; pEC50 / Cellular Emax (%): HEK293 cells inducible for P301L mutant human Tau, 6 hours incubation; for Cellular Emax (%): maximum = Thiamet G 200 uM; for Emax: HEK293, read-out: Cellular Emax (%)
T2 construct: HEK293 cells inducible for P301L mutant human Tau (isoform 2N4R) were established at Janssen; endogenous in cells; host or cells: HEK293 cells inducible for P301L mutant human Tau (2N4R)
T2 sequence (O60502 1-916): T1 sequence (O60502 1-916)
Text: HEK293 cells inducible for P301L mutant human Tau (isoform 2N4R) were established at Janssen. Thiamet-G was used for both plate validation (high control) and as reference compound (reference EC50 assay validation). […] Inhibition of OGA will result in an increase of O-GlcNAcylated protein levels resulting in an increased signal in the experiment. […] ICC pictures are imaged with a Perkin Elmer Opera Phenix plate microscope and quantified with the provided software Perkin Elmer Harmony 4.1.
Cells were propagated in DMEM high Glucose (Sigma, # D5796) following standard procedures. […] At the day of compound test medium from assay plates was removed and replenished with 90 μl of fresh Assay Medium. 10 μl of compounds at a 10 fold final concentration were added to the wells. Plates were centrifuged shortly before incubation in the cell incubator for 6 hours. DMSO concentration was set to 0.2%. Medium is discarded by applying vacuum. For staining of cells medium was removed and cells washed once with 100 μl D-PBS (Sigma, # D8537). From next step onwards unless other stated assay volume was always 50 μl and incubation was performed without agitation and at room temperature. […] Before analysis samples were washed 2 times manually for 5 minutes in ICC base buffer.
Imaging is performed using Perkin Elmer Phenix Opera using a water 20× objective and recording 9 fields per well. Intensity readout at 488 nm is used as a measure of O-GlcNAcylation level of total proteins in wells. To assess potential toxicity of compounds nuclei were counted using the Hoechst staining. IC50-values are calculated using parametric non-linear regression model fitting. As a maximum inhibition Thiamet G at a 200 uM concentration is present on each plate. In addition, a concentration response of Thiamet G is calculated on each plate.

[2] = Enzymatic protocol B (2 nM OGA, 6 h)
[3] = Enzymatic protocol A (10 nM OGA, 1 h)

Compound | melting point [°C] | Emax [1, 2] [%] | IC50 [1, 2] [nM] | EC50 (OGA) [nM] | Emax (OGA) [%] | further results
CC(=O)Nc1ncc(CN2CCOC(c3cc(C(F)(F)F)nc4ncnn34)C2)s1 (centres unmarked) [Product 37] | 242.64 | 79.6 | 2690 |  |  | 
CC(=O)Nc1ncc(CN2CCCC(C)(c3cc(C(F)F)n4ncnc4n3)C2)s1 (centres unmarked) [Product 62] | 217.24 | 16.2 | > 10000 |  |  | 
CC(=O)Nc1ncc(CN2CCC(c3cc(C(F)(F)F)nc4ncnn34)C2)s1 (centres unmarked) [Product 20] | 214.29 | 93.7 | 603 |  |  | 
CC(=O)Nc1ncc(CN2CCCC(Nc3cc(C)nc4ncnn34)C2)s1 (centres unmarked) [Product 51] | 249.94 | 98.5 | 115 |  |  | 
CC(=O)Nc1ncc(CN2CCOC(c3cc(C(F)F)nc4ncnn34)C2)s1 (centres unmarked) [Product 34] | 260.21 |  |  |  |  | Emax [1, 3]: 97.4%; IC50 [1, 3]: 1580 nM
Cc1cc([C@H]2CN([C@H](C)c3ccc4c(c3)OCO4)CCN2)n2ncnc2n1 [Product 56] | 199.25 | 25.8 | > 10000 |  |  | 
CC(=O)Nc1ncc(S(=O)(=O)N2CC[C@H](C)[C@@H](c3cc(C(F)F)nc4ncnn34)C2)s1 [Product 7] | 264.57 |  |  |  |  | Emax [1, 3]: 82.2%; IC50 [1, 3]: 2750 nM
CC(=O)Nc1ncc(S(=O)(=O)N2CCCC(C)(c3cc(C(F)F)nc4ncnn34)C2)s1 (centres unmarked) [Product 60] | 238.12 |  |  |  |  | Emax [1, 3]: 98.7%; IC50 [1, 3]: 1860 nM
CC(=O)Nc1ncc(CN2CCOC(c3cc(C(F)F)n4ncnc4n3)C2)s1 (centres unmarked) [Product 39] | 209.69 |  |  |  |  | Emax [1, 3]: 88.4%; IC50 [1, 3]: 3470 nM
Cc1cc(C2CN(CC(=O)N3CCCC3)CCO2)n2ncnc2n1 (centres unmarked) [Product 59] | 127.35 | -1.34 | > 10000 |  |  | 
CC(=O)Nc1ncc(CN2CCC[C@H](c3cnc4cc[nH]c4c3)C2)s1 (single isomer, unassigned) [Product 80] |  |  |  |  |  | Cellular hOGA; pEC50 (OGA): 7.72; Cellular Emax (%) (OGA): 109.88%; Enzymatic Emax (%) [1, 2]: 99.58%; Enzymatic hOGA; pIC50 [1, 2]: 7.69
CC(=O)Nc1ncc(S(=O)(=O)N2CCC3(CC3)C(c3cc(C(F)F)nc4ncnn34)C2)s1 (centres unmarked) [Product 63] | 266.56 |  |  |  |  | Emax [1, 3]: 93.8%; IC50 [1, 3]: 692 nM
CC(=O)Nc1ncc(CN2CCCC(c3cc(C)nc4cc[nH]c34)C2)s1 (centres unmarked) [Product 96] |  |  |  |  |  | Cellular hOGA; pEC50 (OGA): 6.40; Cellular Emax (%) (OGA): 70.38%; Enzymatic Emax (%) [1, 2]: 99.16%; Enzymatic hOGA; pIC50 [1, 2]: 6.15
Cc1cc([C@H]2CN([C@@H](C)c3ccc4c(c3)OCO4)CCN2)n2ncnc2n1 [Product 57] | 161.31 | 93 | 617 |  |  | 
CC(=O)Nc1ncc(CN2CCCC(c3ccc4ccn(C)c4n3)C2)s1 (centres unmarked) [Product 73] |  | 101 | 81.3 | 195 | 87.2 | 
CC(=O)Nc1ncc(CN2CCOC(c3ccnc4ncnn34)C2)s1 (centres unmarked) [Product 36] | 251.21 | 93.6 | 741 |  |  | 
CC(=O)Nc1ncc(CN2CCCC(c3cnc4cc[nH]c4c3)C2)s1 (racemic) [Product 26] |  | 123 | 40.7 | 24 | 99 | 
CC(=O)Nc1ncc(CN2CCC(Cc3cccc4nccn34)C2)s1 (centres unmarked) [Product 50] |  | 99.6 | 9.33 | 33.9 | 103 | 
CC(=O)Nc1ncc(CN2CCC3(CC3)C(c3cc(C(F)F)nc4ncnn34)C2)s1 (centres unmarked) [Product 64] |  |  |  | 4790 | 84.5 | Emax [1, 3]: 101%; IC50 [1, 3]: 69.2 nM
CC(=O)Nc1ncc(CN2CCCC(c3ccc4c(ccn4C)n3)C2)s1 (centres unmarked) [Product 100] |  | 98.5 | 309 | 195 | 85.7 | 
CC(=O)Nc1ncc(CN2CCCC(c3ccnc4cc[nH]c34)C2)s1 (racemic) [Product 15] |  | 97.8 | 37.2 | 12.3 | 95.2 | 
CC(=O)Nc1ncc(CN2CCC(Cc3cnc4ccn(C)c4c3)C2)s1 (centres unmarked) [Product 69] |  | 99.6 | 3.02 | 23.4 | 108 | 
CC(=O)Nc1ncc(CN2CCCC(Cc3c(F)c(C)nc4ncnn34)C2)s1 (centres unmarked) [Product 47] |  | 102 | 1.26 | 15.5 | 109 | 
CC(=O)Nc1ncc(CN2CCCC(c3nc(C)cc4cc[nH]c34)C2)s1 (centres unmarked) [Product 93] |  |  |  |  |  | Cellular hOGA; pEC50 (OGA): 7.61; Cellular Emax (%) (OGA): 87.83%; Enzymatic Emax (%) [1, 2]: 101.08%; Enzymatic hOGA; pIC50 [1, 2]: 7.35
c1cc(CC2CCN(Cc3ccc4nccnc4c3)C2)n2ccnc2c1 (centres unmarked) [Product 58] |  | 97.3 | 245 | > 10000 | 4.1 | 
CC(=O)Nc1ncc(CN2CCCC(Cc3cc(C)nc4ncnn34)C2)s1 (centres unmarked) [Product 46] |  | 99.8 | 2.34 | 14.8 | 114 | 
CC(=O)Nc1ncc(CN2CCCC(c3nc(C)cc4ccn(C)c34)C2)s1 (centres unmarked) [Product 88] |  | 101 | 83.2 | 407 | 57.4 | 
CC(=O)Nc1ncc(CN2CCCC(Cc3cccc4nccn34)C2)s1 (centres unmarked) [Product 66] |  | 101 | 29.5 | 18.2 | 97.3 | 
CC(=O)Nc1ncc(CN2CCCC(Cc3cc(C)nc4ccnn34)C2)s1 (centres unmarked) [Product 44] |  | 101 | 3.8 | 35.5 | 129 | 
CC(=O)Nc1ncc(CN2CCCC(c3cc(C)nc4ccn(C)c34)C2)s1 (centres unmarked) [Product 86] |  |  |  |  |  | Cellular hOGA; pEC50 (OGA): 7.18; Cellular Emax (%) (OGA): 100.91%; Enzymatic Emax (%) [1, 2]: 102.93%; Enzymatic hOGA; pIC50 [1, 2]: 8.38
